{"source": "patent US9352013B2", "about": "“Uses of bremelanotide in therapy for female sexual dysfunction” (Palatin Technologies, Inc., priority 2012, dated 2016)", "test": "Subcutaneous trial in males: vomiting", "assay_type": "in vivo, human", "conditions": "intramuscular ondansetron", "experimental": "In a trial in males, 1 of 6 subjects at the 5-mg dose level, 1 of 6 subjects at the 7.5 mg dose level, and 3 of 6 subjects at the 10-mg dose level experienced vomiting that was mild or moderate in intensity and delayed 6 to 15 hours."}
{"compound": "Cc1nccn1CC1CCc2c(c3ccccc3n2C)C1=O", "note": "(stereo not shown) [ondansetron, reference compound]", "values": [{"measurement": "Resolution of bremelanotide-associated vomiting", "result": "Vomiting could be resolved"}]}
